# According to patent US6921821B2, “Antagonists of melanin concentrating hormone receptor” (Abbott Laboratories, priority 2002, dated 2005):
# Target: T1, murine MCHR (Mus musculus, UniProt Q8JZL2)
# T1 construct: expressed in transfected cells; host or cells: HEK293
# Test: Assay for release of intracellular calcium (FLIPR, Fluo-4), inhibition of MCH-induced Ca++ flux
# Assay type: cell-based
# Conditions: test compound at a dose of 10 μM, HEK293 cells expressing the murine MCHR, read-out: inhibition of MCH (MCH induced Ca++ flux / fluorescence)
# Procedure, shortened: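 HEK293 cells expressing murine MCHR were loaded with Fluo-4AM (2.5 μM) and given compound (40 μM stock in 4% DMSO), with 3 min monitoring for agonism. They were then challenged with mouse MCH (12 nM as added) and FLIPR fluorescence followed 3 min more. % inhibition of MCH-induced Ca++ flux was calculated against baseline and no-compound signals.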
# T1 sequence (Q8JZL2 whole entry): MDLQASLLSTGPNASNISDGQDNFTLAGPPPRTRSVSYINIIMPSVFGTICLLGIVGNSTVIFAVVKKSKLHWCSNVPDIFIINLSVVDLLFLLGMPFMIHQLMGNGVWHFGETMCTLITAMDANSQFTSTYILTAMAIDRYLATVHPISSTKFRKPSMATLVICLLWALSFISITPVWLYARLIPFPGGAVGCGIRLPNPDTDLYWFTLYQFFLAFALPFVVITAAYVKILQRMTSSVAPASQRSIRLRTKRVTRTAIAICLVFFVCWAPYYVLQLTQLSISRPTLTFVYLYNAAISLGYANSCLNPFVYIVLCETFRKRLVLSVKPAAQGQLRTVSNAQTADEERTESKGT
row,SMILES,inhibition at 10 µM
1,"C/C(=C\c1ccccc1)CN1CCC(Nc2cc(=O)oc3ccc(Cl)cc23)CC1 [III-18, 6-Chloro-4-[1-(2-methyl-3-phenyl-allyl)-piperidin-4-ylamino]-chromen-2-one]",≥ 50%
2,"COc1ccccc1/C=C/CN1CCC(Nc2cc(=O)oc3ccc(C)cc23)CC1 [III-19, 4-{1-[3-(2-Methoxy-phenyl)-allyl]-piperidin-4-ylamino}-6-methyl-chromen-2-one]",≥ 50%
3,"O=c1cc(NC2CCN(C/C=C/c3ccccc3)CC2)c2ccccc2o1 [III-24, 4-[1-(3-Phenyl-allyl)-piperidin-4-ylamino]-chromen-2-one]",≥ 50%
4,"O=c1cc(NC2CCN(C/C=C/c3ccccc3F)CC2)c2cc(Cl)ccc2o1 [III-56, 6-Chloro-4-{1-[3-(2-fluoro-phenyl)-allyl]-piperidin-4-ylamino}-chromen-2-one]",≥ 50%
5,"N#Cc1ccc2oc(=O)cc(NC3CCN(C/C=C/c4ccccc4)CC3)c2c1 [III-59, 2-Oxo-4-[1-(3-phenyl-allyl)-piperidin-4-ylamino]-2H-chromene-6-carbonitrile]",≥ 50%

# Target: MCH-R1 (Mus musculus, UniProt Q8JZL2)
# Sequence (Q8JZL2 whole entry): as above
# Test: MCH-R1 antagonist activity, comparison of stereoisomers (assay not specified)
# Conditions: qualitative comparison of isomers
row,SMILES,"MCH-R1 antagonist activity, relative between stereoisomers"
1,"C[C@H](c1ccc2ccccc2c1)N1CCC(Nc2cc(=O)oc3ccc(Cl)cc23)CC1 [II-119, (R)-6-Chloro-4-[1-(1-naphthalen-2-yl-ethyl)-piperdin-4-ylamino]-chromen-2-one]",more active than II-120
2,"O=c1cc(NC2CC3CCC(C2)N3Cc2ccc3c(c2)OCO3)c2cc(Cl)ccc2o1 (stereo not drawn) [II-122, (exo)-4-(8-Benzo[1,3]dioxol-5-ylmethyl-8-aza-bicyclo[3.2.1]oct-3-ylamino)-6-chloro-chromen-2-one]",more active than the endo isomer II-123
